Molecules are shown by their SMILES. Active and inactive are the calls of the source. No cut-off for these calls is given here.

MIC and Activity data for one compound are collected here from ChEMBL document CHEMBL5223082, “Alkyl-Aryl-Vancomycins: Multimodal Glycopeptides with Weak Dependence on the Bacterial Metabolic State” (J Med Chem, 2021).

Data set [1] has as its system Staphylococcus aureus. Nature of the data set: Antibacterial activity against Methicillin-resistant Staphylococcus aureus ATCC 33591 assessed as inhibition of bacterial growth incubated for 18 to 24 hrs by CLSI microbroth dilution method. It counts as functional. Conditions: time 18-24 hrs. A general note: Broth dilution looks for growth in wells or tubes with falling amounts of substance.

The subject of another data set is Cell membrane. Nature of the data set: Induction of cytoplasmic membrane depolarization in Vancomycin-resistant Enterococci assessed as increase in fluorescence intensity at 10 uM measured for 35 to 40 mins by DiSC3(5) dye based fluorescence analysis. It counts as subcellular. The settings on record: Enterococcus, time 35-40 min.
Data set [2] relates to Staphylococcus aureus. Description: Antibacterial activity against stationary phase of Methicillin-resistant Staphylococcus aureus ATCC 33591 assessed as log reduction in bacterial colonies at 22 uM incubated for 24 hrs in broth solution followed by incubation on agar plate for 48 hrs by spot plating method. It counts as functional. The settings on record: time 72 hrs.
Data set [3] has as its system Staphylococcus aureus. Nature of the data set: Antibacterial activity against Methicillin-resistant Staphylococcus aureus ATCC 33591 assessed as inhibition of bacterial growth incubated for 18 to 24 hrs in presence of 50% human liver homogenate by CLSI microbroth dilution method. It counts as functional. The settings on record: ATCC 33591, Liver, time 18-24 hrs.
Data set [4] can be described thus: Toxicity in BALB/c mouse assessed as adverse effects at 55.5 mg/kg, iv measured for 4 hrs. It counts as organism-based. The settings on record: in vivo.

With `CCCCCCCCCCNC(=O)C[N+](C)(C)CCCNC(=O)c1ccc(CN[C@@]2(C)C[C@H](O[C@H]3[C@H](Oc4c5cc6cc4Oc4ccc(cc4Cl)[C@@H](O)[C@@H](NC(=O)[C@@H](CC(C)C)NC)C(=O)N[C@@H](CC(N)=O)C(=O)N[C@H]6C(=O)N[C@H]4C(=O)N[C@H](C(=O)N[C@H](C(=O)O)c6cc(O)cc(O)c6-c6cc4ccc6O)[C@H](O)c4ccc(c(Cl)c4)O5)O[C@H](CO)[C@@H](O)[C@@H]3O)O[C@@H](C)[C@H]2O)cc1`, the MIC with Staphylococcus aureus [1] and in the data set on Staphylococcus aureus [3] was 0.9 µM each time. Besides, in the data set on Cell membrane, the result was Active. The Activity in the data set on Staphylococcus aureus [2] is reported as 7 log10CFU/ml; in data set [4], “Non-Toxic”.

What is called MIC is the lowest concentration found to suppress growth.
